Test results published in patent US11008572B2, “Methods and compositions for modulating splicing” (SKYHAWK THERAPEUTICS, INC., priority 2017, dated 2021).

Key:
IKBKAP^FL mRNA = assay: IKBKAP splicing assay, qPCR; type: cell-based; conditions: 24 hours of incubation
Procedure: (§1) Various cells lines were treated with the SMSMs described herein. RNA was then isolated, cDNA synthesized, qPCR performed and the levels of IKBKAP targets of the SMSMs were determined.
(§2) On the day of the experiment, a 96-well plate was seeded with the cell lines of interest. The cells were diluted with full growth media to a concentration of 2.0×10^5 cells/mL and 100 μL of cells were added to each well (20,000 cells per well). The cells were treated with a compound immediately after plating.
(§3) The compounds were then added to the cell plate using the HP compound dispenser. In the initial experiment, a top concentration of 10 μM and an 8 point 4-fold dilution scheme was used. The stock compounds were made at a concentration of 5 mM, and the DMSO concentration was set to 0.2%. DMSO was used to normalize all the compound-containing wells and the untreated cells.
(§4) The treated cells were incubated at 37° C. in a 5% CO2 incubator for the desired amount of time. Plates were placed in a plastic bag with a wet paper towel to prevent evaporation.
(§5) RNA was isolated using the Cells to CT kit (ThermoFisher, AM1728). The cells were washed once with 100 μL cold PBS. 50 μL of lysis buffer was added to each well/tube (49.5 μL lysis buffer+0.5 μL DNase I per well/tube). The lysis reaction was mixed and incubated at room temperature for 5 minutes. 5 μL of stop solution was added directly into each cell lysis reaction and mixed by pipetting up and down 5 times. The plates/tubes were incubated at room temperature for 2 minutes then placed on ice if the cDNA synthesis was to be performed immediately. Otherwise, the plates/tubes were stored at −80° C.
(§6) cDNA synthesis reactions were then performed. 40 μL RT master mix was added to PCR tubes or plate wells. 10 μL of RNA was added to each tube/well. The RT thermal cycler program was then run and tubes or plate wells were incubated at 37° C. for 1 hour, then at 95° C. for 5 minutes to deactivate the enzyme.
(§7) The qPCR was performed using a QuantStudio 6 instrument (ThermoFisher) and the following cycling conditions and according to the tables below. All samples and standards were analyzed in triplicate. Cycle 1: 2 minutes at 50° C. Cycle 2: 10 minutes at 95° C. Cycle 3 (repeat 40 times): 15 seconds at 95° C., 1 minute at 60° C.
(§8) The determined IKBKAP^FL and […] isoform quantities were then used to determine the IKBKAP^FL: IKBKAP^Δ20 ratio at increasing SMSM compound concentrations. The PPIA quantities were used in the normalization to account of cell proliferation effects of the compounds.
(§9) An assay to measure the IKBKAP^FL mRNA and IKBKAP^Δ20 mRNA simultaneously in cell wells was performed. The RNA values were measured relative to DMSO control and also included a housekeeping gene, PPIA to ensure data was consistent. The mRNA values were measured after 24 hours of incubation with the SMSM compounds.

IKBKAP^Δ20 mRNA = assay: IKBKAP splicing assay, qPCR; type: cell-based; conditions: 24 hours of incubation
Procedure: as §1, §2, §3, §4, §5, §6, §7, §8, §9

A673 xenografts = assay: A673 xenograft tumor growth inhibition; type: in vivo; conditions: immunocompromised nude mice with pre-existing A673 xenografts
Procedure: Dose range and time course studies comparing anti-neoplastic effects of SMSM-167 and SMSM-151 against vehicle were conducted.
Female NCrNu mice were used. Age range of enrolment was 7-10 weeks. A total of 75animals were for the studies.
The A673 tumor cell line was maintained in vitro as a monolayer culture. […] The cells growing in an exponential growth phase were harvested and counted for tumor inoculation.
Each mouse were inoculated into aright flank with the single cell suspension of 95% viable tumor cells (5×10^6 cells/mouse) in serum-free RPMI 1640 Media for tumor development. Treatments were administered when mean tumor size reached approximately 75 mm^3. […]
Body weight were measured prior to tumor inoculation and prior to the treatment administration and then daily. Tumor size were measured 2-3 times per week in two dimensions using a caliper, and the volume were expressed in mm^3 using the formula: V=0.5×a×b^2 where a and b are the long and short diameters of the tumor, respectively. […]
Studies were performed to assess the effects of in vivo SMSM treatment on glioblastoma, breast, pancreatic, prostate, melanoma, lymphoma and Ewing sarcoma tumors. […] After SMSM treatment, mRNA was isolated from the xenografts and was analyzed by qRT-PCR.
Tumor size was measured 2 times per week in two dimensions using a caliper. […]

A375 xenografts = assay: A375 xenograft tumor growth inhibition; type: in vivo; conditions: immunocompromised nude mice with pre-existing A375 xenografts
Procedure: Studies were performed to assess the effects of in vivo SMSM treatment on glioblastoma, breast, pancreatic, prostate, melanoma, lymphoma and Ewing sarcoma tumors. Studies were also performed to assess the effects of in vivo SMSM treatment on mRNA levels. Immunocompromised nude mice with pre-existing glioblastoma, breast, pancreatic, prostate, melanoma, lymphoma and Ewing sarcoma xenografts were treated with vehicle or SMSMs. Tumor tissues from subcutaneous xenografts were broken into a powder using a BioPulverizer (Biospec Products, Inc.). After SMSM treatment, mRNA was isolated from the xenografts and was analyzed by qRT-PCR.
Tumor size was measured 2 times per week in two dimensions using a caliper. Studies were terminated when the tumor size in the vehicle treated group reached 2,000 mm^3. Each mouse was bled at 2 hrs after the last dose and at least 50 μl of plasma was collected from each mouse. All of the collected plasma samples and retainer dosing solutions for each dose level were used for bioanalytical measurements. All tumors were also collected and weighed. One necrosis-free tumor fragment of approximately 50 mg was taken from each tumor and flash-frozen for RNA isolation. […]
The effects of in vivo SMSM treatments on pre-existing subcutaneous glioblastoma, breast, pancreatic, prostate, melanoma, lymphoma and Ewing sarcoma xenografts were assessed. […]

[1] = Splicing (IC50), Example 22; type: cell-based; conditions: spliced gene and cells not stated
Procedure: A-673 cell viability […], splicing (IC50) and brain AUC/Plasma AUC of SMSMs were determined. As shown in the tables below SMSMs had high CNS exposure.

[2] = Maximum tolerable dose study; type: in vivo; conditions: mice, 3 per group
Procedure: Survival of mice after administration of SMSMs after 10 or 11 days was assessed.
Tolerance of the drug treatments was determined by measuring the weight of the mice during the period of drug administration. Body weight was measured prior to tumor inoculation and prior to the treatment administration and then daily. The changes in the final weight of the mice for the SMSM treatments were determined.

Structure (SMILES)	EC50 (IKBKAP^FL mRNA) [nM]	IC50 (IKBKAP^Δ20 mRNA) [nM]	tumor growth inhibition (TGI), in words (A673 xenografts)	tumor growth inhibition (TGI), in words (A375 xenografts)	IC50 [1] [nM]	Outcome ([2]; IP 1 mg/kg QDx11)	Outcome ([2]; PO 10 mg/kg BIDx11)	Outcome ([2]; PO 10 mg/kg QDx11)
CN(c1ccc(-c2ccc(-c3cn[nH]c3)cc2O)nn1)[C@@H]1C[C@H]2CC[C@@H](C1)N2 [compound 138, 2-(6-(((1R,3s,5S)-8-azabicyclo[3.2.1]octan-3-yl)(methyl)amino)pyridazin-3-yl)-5-(1H-pyrazol-4-yl)phenol]	101 to 350	201 to 1000						
CN(c1ccc(-c2ccc(-c3cn[nH]c3)cc2O)nn1)[C@H]1C[C@]2(C)CC[C@](C)(C1)N2 [compound 151, 2-(6-(((1R,3s,5S)-1,5-dimethyl-8-azabicyclo[3.2.1]octan-3-yl)(methyl)amino)pyridazin-3-yl)-5-(1H-pyrazol-4-yl)phenol]			led to tumor growth inhibition	led to tumor growth inhibition	< 1	All survived	All survived	All survived
CN(c1ccc(-c2ccc(-c3cn[nH]c3)cc2O)nn1)[C@@H]1C[C@H]2CCC[C@@H](C1)N2 [compound 160, 2-(6-(((1R,3s,5S)-9-azabicyclo[3.3.1]nonan-3-yl)(methyl)amino)pyridazin-3-yl)-5-(1H-pyrazol-4-yl)phenol]	< 100	< 200	led to tumor growth inhibition	led to tumor growth inhibition	< 1			
